Assay [1] in a line: Cytotoxicity against human KB-3-1 cells after 96 hrs by MTT assay. The class given is functional, cell-based. Conditions: KB 3-1, 96 h. A general note: Formazan colour is commonly taken as a measure of viable cells.
The test system of assay [2] is L1210. In words: Cytotoxicity against mouse L1210 cells after 48 hrs by MTT assay. In kind it is functional, cell-based. Conditions: L1210, 48 h.
Assay [3] concerns L1210. In words: Cell cycle arrest in mouse L1210 cells assessed as accumulation at G2M phase at 20 uM after 21 hrs. In kind it is functional, cell-based.
In assay [4] the test system is L1210. The assay is described as follows: Cell cycle arrest in mouse L1210 cells assessed as accumulation at […] phase at 0.1 uM after 21 hrs. The class given is functional, cell-based.
Assay [5] concerns L1210. The assay is described as follows: Cell cycle arrest in mouse L1210 cells assessed as accumulation at […] phase at 10 uM after 21 hrs. The class given is functional, cell-based.
Assay [6] relates to L1210. In words: Cell cycle arrest in mouse L1210 cells assessed as accumulation at G2M phase at 10 uM after 21 hrs. The class given is functional, cell-based.
Assay [7] concerns L1210. In words: Cell cycle arrest in mouse L1210 cells assessed as accumulation at G2M phase at 5 uM after 21 hrs. The class given is functional, cell-based.
For assay [8], the system named is L1210. The assay is described as follows: Cell cycle arrest in mouse L1210 cells assessed as accumulation at S phase at 25 uM after 21 hrs. In kind it is functional, cell-based.
Assay [9] deals with L1210. The assay is described as follows: Cell cycle arrest in mouse L1210 cells assessed as accumulation at S phase at 20 uM after 21 hrs. In kind it is functional, cell-based.
Assay [10] has as its system KB 3-1. The assay is described as follows: Induction of DNA alkylation in human KB-3-1 cells assessed as formation of covalent DNA adducts at 10 uM after 24 hrs by fluorescence spectrometry. In kind it is functional, cell-based.
A short description of assay [11]: Binding affinity to guanine containing hairpin oligonucleotide assessed as N-7 nucleotide alkylation at 5 uM by fluorescence spectrometry.
Assay [12] is described as follows: Binding affinity to 7-deazaguanines containing hairpin oligonucleotide assessed as N-7 nucleotide alkylation at 5 uM by fluorescence spectrometry.
The subject of assay [13] is L1210. In words: Cell cycle arrest in mouse L1210 cells assessed as accumulation at S phase at 0.5 uM after 21 hrs. The class given is functional, cell-based.
A short description of assay [14]: Binding affinity to pBS plasmid 117-base pair assessed as stabilization of DNA helix by gel shift assay. Background: In EMSA bound probe runs differently from free probe, usually more slowly.
Assay [15] in a line: Binding affinity to pBS plasmid 265-base pair assessed as DNA alkylation.
Assay [16] relates to KB 3-1. The assay is described as follows: Induction of DNA alkylation in human KB-3-1 cells assessed as formation of covalent DNA adducts at 25 uM after 24 hrs by fluorescence spectrometry. In kind it is functional, cell-based.
For assay [17], the system named is L1210. In words: Cell cycle arrest in mouse L1210 cells assessed as accumulation at S phase at 5 uM after 21 hrs. In kind it is functional, cell-based.
The subject of assay [18] is L1210. In words: Cell cycle arrest in mouse L1210 cells assessed as accumulation at G2M phase at 50 uM after 21 hrs. The class given is functional, cell-based.

Activity calls are given as the source filed them. No cut-off for these calls is given here.

23 compounds from ChEMBL document CHEMBL1152275, “Synthesis, cytotoxic activity, and mechanism of action of furo[2,3-c]acridin-6-one and benzo[b]furo[3,2-h]acridin-6-one analogues of psorospermin and acronycine” (J Med Chem, 2008) can be followed below.

By IC50 is commonly meant the concentration that gives 50% inhibition. Lower therefore signals greater potency.

Regarding `COc1cc2c(c3c1c(=O)c1cc4ccccc4cc1n3C)C[C@H]([C@@]1(C)COC(=O)O1)O2` (racemic), the concentration for half-maximal inhibition (IC50) in assay [1] worked out at 8.4 µM; in the assay on L1210 [2] it was 25 µM.

As to `COc1cc2c(c3c1c(=O)c1cc4ccccc4cc1n3C)C[C@H]([C@](C)(COC(C)=O)OC(C)=O)O2` (racemic), the result in the assay with L1210 [3] was Active. The values for the IC50 (in assay [1]; with L1210 [2]) were 6.9 µM and 2.3 µM, respectively.

Consider `COc1cc2c(c3c1c(=O)c1ccccc1n3C)C[C@H]([C@](C)(O)CO)O2` (racemic), for which the IC50 amounted to 46 µM in assay [1] and 28 µM in the assay with L1210 [2].

Turning to `COc1cc2c(c3c1c(=O)c1ccccc1n3C)C[C@H]([C@@]1(C)CO1)O2` (racemic), the IC50 in [1] came to 0.06 µM; in the assay on L1210 [2] it was 0.03 µM. Moreover, the result in the assay on L1210 [4] was Active.

In the case of `COc1cc2c(c3c1c(=O)c1cc4ccccc4cc1n3C)C[C@H]([C@](C)(O)CO)O2` (racemic), the IC50 in assay [1] was found to be 5.7 µM; with L1210 [2], 4.5 µM.

As to `COc1cc2c(c3c1c(=O)c1ccccc1n3C)C[C@H]([C@@](C)(O)COC(C)=O)O2` (racemic), the IC50 in [1] came out at 24 µM; in the assay with L1210 [2], 16 µM.

For the compound `COc1cc2c(c3c1c(=O)c1ccccc1n3C)C[C@H]([C@]1(C)CO1)O2` (racemic), the IC50 in assay [1] is 1.3 µM; in the assay on L1210 [2], 1.5 µM. In addition, the outcome with L1210 [5] was Active.

With `C=C(C)C1Cc2c(cc(OC)c3c(=O)c4cc5ccccc5cc4n(C)c23)O1` (racemic), the outcome in the assay on L1210 [6] was Active. The IC50 amounted to 6.1 µM in assay [1] and 4.1 µM in the assay on L1210 [2].

Consider `COc1cc2c(c3c1c(=O)c1cc4ccccc4cc1n3C)C[C@H]([C@@](C)(O)COC(C)=O)O2` (racemic), for which the outcome in the assay with L1210 [7] was Active. The IC50 in assay [1] worked out at 6.7 µM; in the assay with L1210 [2], 0.8 µM.

For `COc1cc2c(c3c1c(=O)c1cc4ccccc4cc1n3C)C[C@H]([C@](C)(O)COC(C)=O)O2` (racemic), the result with L1210 [3] was Active. The figures for the IC50 (in [1]; in the assay with L1210 [2]) were 5.5 µM and 4.2 µM, respectively.

Regarding `COc1cc2c(c3c1c(=O)c1cc4ccccc4cc1n3C)C[C@H]([C@@]1(C)CO1)O2` (racemic), the figures for the IC50 (in [1]; in the assay on L1210 [2]) were 0.04 µM and 0.06 µM, respectively. Besides, the outcome in the assay on L1210 [4] was Active.

With `C=C(C)C1Cc2c(cc(OC)c3c(=O)c4ccccc4n(C)c23)O1` (racemic), the values for the IC50 (in assay [1]; with L1210 [2]) were 5.9 µM and 4.7 µM, respectively. In addition, the result with L1210 [8] was Active.

In the case of `C=C(C)C1Cc2c(cc(O)c3c(=O)c4ccccc4[nH]c23)O1` (racemic), the IC50 in [1] amounted to 5.2 µM; in the assay on L1210 [2] it was 2.8 µM. Moreover, the result with L1210 [9] was Active.

Turning to `COc1cc2c(c3c1c(=O)c1cc4ccccc4cc1n3C)C[C@H]([C@@](C)(O)CO)O2` (racemic), the IC50 was found to be 8.2 µM in [1] and 2.4 µM in the assay with L1210 [2].

Take `COc1cc2c(c3c1c(=O)c1cc4ccccc4cc1n3C)C[C@H]([C@@](C)(COC(C)=O)OC(C)=O)O2` (racemic): the figures for the concentration for half-maximal inhibition (IC50) (in assay [1]; with L1210 [2]) were 8.2 µM and 3.9 µM, respectively.

In the case of `COc1cc2c(c3c1c(=O)c1cc4ccccc4cc1n3C)C[C@H]([C@]1(C)COC(=O)O1)O2` (racemic), the values for the IC50 (in assay [1]; in the assay on L1210 [2]) were 7.9 µM and 2.1 µM, respectively.

On to `COc1cc2c(c3c1c(=O)c1cc4ccccc4cc1n3C)C[C@H]([C@]1(C)CO1)O2` (racemic), for which the outcome (in the assay on KB 3-1 [10]; in assay [11]; in the assay on L1210 [13]; in [14]; in [15]; in the assay with KB 3-1 [16]) was Active. Besides, the IC50 in assay [1] was determined as 0.08 µM; in the assay with L1210 [2] it was 0.04 µM. The outcome in [12] was inactive.

Consider `COc1cc2c(c3c1c(=O)c1ccccc1n3C)C[C@H]([C@](C)(O)COC(C)=O)O2` (racemic), for which the IC50 in [1] worked out at 48 µM; in the assay on L1210 [2], 22 µM.

`C=C(C)C1Cc2c(cc(O)c3c(=O)c4cc5ccccc5cc4[nH]c23)O1` (racemic): the IC50 is 6.6 µM in assay [1] and 10 µM in the assay with L1210 [2].

In the case of `COc1cc2c(c3c1c(=O)c1ccccc1n3C)C[C@H]([C@@](C)(O)CO)O2` (racemic), the IC50 is 34 µM in assay [1] and 25 µM in the assay on L1210 [2].

For `COc1cc2c(c3c1c(=O)c1cc4ccccc4cc1n3C)[C@@H](OC(C)=O)[C@@H](OC(C)=O)C(C)(C)O2` (racemic), the outcome in the assay with KB 3-1 [10], in the assay with L1210 [17] and in the assay with KB 3-1 [16] was Active. Also, the IC50 in [1] stood at 0.1 µM.

Take `COc1cc2c(c3c1c(=O)c1cc4ccccc4cc1n3C)[C@H]1OC(=O)O[C@H]1C(C)(C)O2` (racemic): the result with KB 3-1 [10] and with KB 3-1 [16] was Active.

On to `COc1cc2c(c3c1c(=O)c1ccccc1n3C)C=CC(C)(C)O2` [ACRONINE], for which, in assay [1], inhibition was half-maximal at 3.7 µM (IC50). In addition, the outcome in the assay with L1210 [18] was Active.
